Measured values as given in US20120329758A1, “Combined Treatment Utilizing VB-201” (priority 2010, published 2012).

Columns and labels:
[1] = Plasma cholesterol assay in rabbits fed a high-cholesterol diet; format: in vivo, male New Zealand White rabbits; conditions: for Average cholesterol level / Average cholesterol level (% of control): plasma, atorvastatin 2.5 mg/kg, VB-201 4 mg/kg; for effect on cholesterol levels (in words): rabbits on high-cholesterol diet, atorvastatin 2.5 mg/kg (alone or with VB-201), VB-201 4 mg/kg per se
Method: Plasma cholesterol levels were determined in the Bert W. Strassburger Lipid Center (Sheba Medical Center, Israel) using a Cobas Mira analyzer (Roche) and cholesterol reagent (Roche/Hitach).
(§1) Atherosclerosis was induced in male New Zealand White rabbits (hsdIF:NZ, Harlan) by supplying the rabbits with a high-cholesterol diet (0.5% w/w cholesterol) for 14 weeks. The rabbits were assigned to four treatment groups (7 or 8 animals per group): a) atorvastatin treatment; b) VB-201 treatment; c) combined atorvastatin+VB-201 treatment; and d) PBS with 0.5% ethanol (control group).
Atorvastatin was administered by supplementing the diet with 50 mg/kg atorvastatin, which corresponds to a daily dose of approximately 2.5 mg/kg, based on a daily food consumption of approximately 125 grams per rabbit and an average weight of 2.5 kg.
VB-201 was administered daily (5 days per week) by oral gavage of the stock solution (2.7 mg/ml) at volume of 1.5 ml per kg body weight, corresponding to a dose of approximately 4 mg/kg.
(§2) At the end of 14 weeks, the rabbits were sacrificed, and the effects of the treatments were evaluated by measurement of aortic lesion areas and plasma cholesterol levels, and routine blood chemistry assessment (as described hereinabove). Plasma cholesterol levels were also determined after 5 weeks of the high-cholesterol diet.

[2] = Blood chemistry assay (SGPT, alkaline phosphatase) in rabbits fed a high-cholesterol diet; format: in vivo, male New Zealand White rabbits; conditions: 14 weeks of high-cholesterol diet, atorvastatin 2.5 mg/kg, VB-201 4 mg/kg
Method: Blood chemistry was assayed by the Pathological Chemistry Institute Laboratory (Sheba Medical Center, Israel) using an AU2700® spectrophotometer (Olympus) and the appropriate Olympus reagents. The parameters evaluated were urea, creatinine, glucose, potassium, sodium, chloride, total calcium, phopshorus, uric acid, bilirubin, SGOT, SGPT, LDH, total CPK, CPK-MB, CK-MB %, total protein, albumin, globulin, alkaline phosphatase and osmolality levels. Atherosclerosis was induced in male New Zealand White rabbits (hsdIF:NZ, Harlan) by supplying the rabbits with a high-cholesterol diet (0.5% w/w cholesterol) for 14 weeks. The rabbits were assigned to four treatment groups (7 or 8 animals per group): a) atorvastatin treatment; b) VB-201 treatment; c) combined atorvastatin+VB-201 treatment; and d) PBS with 0.5% ethanol (control group). […] VB-201 was administered daily (5 days per week) by oral gavage of the stock solution (2.7 mg/ml) at volume of 1.5 ml per kg body weight, corresponding to a dose of approximately 4 mg/kg. At the end of 14 weeks, the rabbits were sacrificed, and the effects of the treatments were evaluated by measurement of aortic lesion areas and plasma cholesterol levels, and routine blood chemistry assessment (as described hereinabove).

[3] = test system: atherosclerosis (aortic lesion area) in rabbits fed a high-cholesterol diet; assay: Measurement of aortic lesion area in rabbits fed a high-cholesterol diet; format: in vivo, male New Zealand White rabbits; conditions: high-cholesterol diet 14 weeks, atorvastatin approx. 2.5 mg/kg daily in diet, VB-201 approx. 4 mg/kg oral gavage 5 days per week, FIG. 1
Method: Aortas were collected upon sacrifice. Lesion area was determined by scanning the intensity of Sudan IV stain adhering to the lesioned tissue, using Image-Pro Plus software (Media Cybernetics). Lesion areas were calculated in three different sections of the aorta (aortic arch, thoracic aorta and abdominal aorta). The total aortic lesion area (sum of lesion areas in all 3 sections) was calculated as a percentage of the sum of all 3 section areas.
as §1, with “group). […]” for “group).”
as §2

[4] = test system: C-reactive protein (CRP); conditions: healthy humans; previously shown; cited from earlier work
[5] = test system: DSS-induced colitis in mice; assay: Dextran sulfate sodium (DSS)-induced colitis model; format: in vivo; conditions: for body weight loss: DSS colitis mice, VB-201 oral daily; for body weight loss / disease activity index (DAI), chronic phase / disease activity index (DAI), acute phase: glatiramer acetate 2 mg per mouse s.c. daily; for disease activity index (DAI), chronic phase: after about day 20; for disease activity index (DAI), chronic phase / disease activity index (DAI), acute phase: VB-201 0.04, 0.4 or 4 mg/kg oral daily, FIG. 3; for disease activity index (DAI), acute phase: until about day 20
Method: Colitis was induced in mice with dextran sulfate sodium (DSS), to serve as a model of inflammatory disorders. A solution of 2% DSS was administered in the drinking water of the mice on days 0-4, 19-23 and 32-36 of the experiment.
VB-201 was administered by oral gavage at daily doses of 0.04, 0.4 or 4 mg/kg, beginning 5 days prior to disease induction (i.e., first day of DSS administration). In an alternative treatment, 2 mg per mouse of glatiramer acetate was administered subcutaneously, daily from day 0. Each treatment group included 20 mice. As a negative control, 15 mice were administered vehicle (PBS with 0.5% ethanol) by gavage beginning 5 days prior to disease induction. […], 8 mice were administered vehicle (PBS with 0.5% ethanol) by gavage beginning 5 days prior to disease induction, without treatment with DSS, and 5 mice received no treatment at all. Mice were sacrificed on day 39, and their colon length and weight was determined.
Mice were scored according to a disease activity index (DAI), based on the average score for weight loss, stool consistency and bleeding, as follows: […]

[6] = 5 weeks of high-cholesterol diet
[7] = 14 weeks of high-cholesterol diet
[8] = day 39, VB-201 at all tested doses (0.04, 0.4, 4 mg/kg), glatiramer acetate 2 mg per mouse, FIG. 4
[9] = glatiramer acetate 2 mg per mouse s.c. daily from day 0, FIG. 2

Compound	Average cholesterol level [1, 6] [mg/dL]	Average cholesterol level (% of control) [1, 6]	Average cholesterol level [1, 7] [mg/dL]	Average cholesterol level (% of control) [1, 7]	effect on cholesterol levels (in words) [1]	reduction of aortic lesion areas relative to the control group [3] [%]	body weight loss [5]	disease activity index (DAI), chronic phase [5]	DSS-induced shortening of the colon length [5, 8]	disease activity index (DAI), acute phase [5]	other results
CC(C)c1c(C(=O)Nc2ccccc2)c(-c2ccccc2)c(-c2ccc(F)cc2)n1CC[C@@H](O)C[C@@H](O)CC(=O)O [Atorvastatin]	580	56 % of control	1082	64 % of control	reduced cholesterol levels considerably	33	–	–	–	–	Average Alkaline Phosphatase level [2]: 104.63 IU/L; Average Alkaline Phosphatase level (% of control) [2]: 174 % of control; Average SGPT level [2]: 110.63 IU/L; Average SGPT level (% of control) [2]: 235 % of control; effect on SGPT and alkaline phosphatase levels (in words) ([2]; rabbits): increased
CCCCCCCCCCCCCCCCOCC(COP(=O)([O-])OCC[N+](C)(C)C)OCCCCC(=O)O (stereo not shown) [VB-201, 1-hexadecyl-2-(4′-carboxybutyl)-glycerol-3-phosphocholine]	1303	126 % of control	2195	131 % of control	did not reduce cholesterol levels	39	reduced body weight loss over the period of days 17-24	reduced the DAI	partially reversed	without reducing the DM	C-reactive protein (CRP) levels, a marker for inflammation [4]: effective at reducing; survival at day 39 ([5]; VB-201 at all tested doses (0.04, 0.4 or 4 mg/kg daily oral gavage), FIG. 2): at least 80%; effect on colon length, compared between doses ([5]; day 39, 0.04 mg/kg VB-201 versus 0.4 and 4 mg/kg, FIG. 4): more effective than the higher doses; DSS-induced increase in the colon weight/length ratios ([5]; day 39, VB-201 at all tested doses (0.04, 0.4, 4 mg/kg), glatiramer acetate 2 mg per mouse, FIG. 5): partially reversed
Glatiramer acetate	–	–	–	–	–	–	reduced body weight loss over the period of days 8-22	did not reduce the DAI	not effective	reduced the DAI	survival by day 39 compared with control mice [5, 9]: below that of control mice; survival until day 23 [5, 9]: 100%
